Data from article PMC8042770, “Odorant Receptors for Detecting Flowering Plant Cues Are Functionally Conserved across Moths and Butterflies” (Molecular Biology and Evolution, 2020).
“Also recorded” adds a separate entry of the source.

Columns and labels:
HarmOR42 = HarmOR42 (Helicoverpa armigera, UniProt A0A7T3KAF6); experiment: Xenopus oocyte two-electrode voltage clamp, HarmOR42 + Orco; assay type: cell-based
Excerpt: In preliminary screening, we used a high dosage (10^−4 M) of odorants. […] Most functional ORs responded robustly to multiple odorants. The strongest response (up to ∼6,000 nanoampere, nA) we detected was that of HarmOR42 toward the aromatic compound PAA. Further, the response profiles of the 28 HarmORs appeared to be highly differentiated, with no apparent overlap in their tuning spectra (with the exception of HarmOR12 and 36) according to functional cluster analysis (fig. 1A).
In order to expand our analysis on the response properties of HarmORs, we conducted dose–response analyses for the 28 functional HarmORs. […] Six HarmORs (OR3, 22, 48, 50, 56, and 66) could not be activated by any ligand at 10^−5 M. For the other 22 HarmORs, dose–response curves were generated and EC50 values of their major ligands were calculated (fig. 2A and supplementary table S2, Supplementary Material online). The HarmOR repertoire was highly efficient in terpene detection, since the lowest EC50 values were obtained for such compounds. Many of these terpenes have been proposed to be defensive chemicals of plants. […] DMNT is also one of the oviposition deterring compounds found in larval frass of some Lepidoptera species such as S. littoralis ([Anderson et al. 1993]).
Functional characterization of individual ORs was performed by heterologous expression in Xenopus oocytes combined with a two-electrode voltage-clamp system ([Wang et al. 2010]). Briefly, the full-length gene of each OR and Orco were subcloned into the eukaryotic expression vector pT7TS. cRNAs were generated from linearized expression vectors using the mMESSAGE mMACHINE T7 kit (Ambion, Austin, TX). Then, the cRNA mixture of ORx and Orco (27.6 ng each) was injected (Nanoliter 2010, WPI Inc., Sarasota, FL) into oocytes (stage V–VII). The respective Orcos of different species were used for functional studies of OR42 orthologs except for the four butterfly species (V. tameamea, P. xuthus, D. plexippus, and P. rapae), in which we used the Orco from P. xuthus. After incubation in nutrient solution at 18 °C for 3–5 days, the response profile of each oocyte to multiple plant odorants was recorded via a two-electrode voltage clamp (OC-725C oocyte clamp, Warner Instruments, Hamden, CT) at a holding potential of −80 mV. Data were acquired by using a Digidata 1440 A and were analyzed by pCLAMP 10.2 software (Axon Instruments Inc., Union City, CA).
Stock solutions of each odorant were prepared at 1 M using DMSO as a solvent, and each odorant was diluted in 1× Ringer’s solution to the indicated concentrations for electrophysiological recording. For functional screening of each HarmOR, a panel of 67 odorants belonging to three types of chemical classes: terpenes, aromatics, and aliphatics (short-chain fatty acid) were used (supplementary table S1, Supplementary Material online). For functional studies of OR42 orthologs from different species, six odorants including PAA, benzaldehyde, (E)-2-hexen-1-al, cinnamaldehyde, 2-phenylethanol, and heptanal were used.

[1] = tested on: H. armigera moth antennae; experiment: Electroantennography (EAG), wild-type vs HarmOR42 knock-out moths; assay type: in vivo, Helicoverpa armigera; conditions: single odorants, 1 μg
Excerpt: We next conducted a loss-of-function study by generating a HarmOR42-lacking H. armigera strain by CRISPR/Cas9 targeting the first coding exon. Homozygous mutants were obtained with a large segment deletion of 203 bp and a 6-bp nonhomologous insertion in the genome (fig. 6B), introducing a premature stop codon in the coding sequence. […] The most likely hypothesis is that HarmOR42 is not the major receptor for sensing this compound in H. armigera. As a control, we tested the response of male moths to the sex pheromone component Z11-16: Ald that is not a ligand of HarmOR42. As expected, we observed no difference between the EAG responses of mutant and wild-type moths to this compound.
The antennae of 2- to 3-day-old virgin male and female moths were cut at the base of the flagellum. After removing the tip, one antenna was inserted between two glass electrodes filled with 0.1 M KCl solution. In each test, a 10-μl solution of each odorant was added onto a piece of filter paper (0.5 cm × 0.5 cm) and then inserted into a Pasteur pipette. About 100 ng/μl stock solutions of individual odorants and different doses of the mixture IAC were prepared with paraffin oil. A continuous airflow of 30 ml/s was produced by a stimulus controller (CS-55, Syntech, Kirchzarten, Germany). Odor stimulation was controlled by a puff of purified air (0.2 s at 10 ml/s airflow) from the CS-55. EAG signals were amplified with a 10× AC/DC headstage preamplifier (Syntech) and further acquired with an Intelligent Data Acquisition Controller (IDAC-4-USB, Syntech) ([Cao et al. 2016]). The signals were recorded, monitored, and analyzed using Syntech EAG-software (Syntech, Germany). The EAG response values for each compound were calculated by subtracting the value of the same antennae corresponding to a solvent blank of paraffin oil.

HarmOR42, sequence (A0A7T3KAF6 entry or part of it): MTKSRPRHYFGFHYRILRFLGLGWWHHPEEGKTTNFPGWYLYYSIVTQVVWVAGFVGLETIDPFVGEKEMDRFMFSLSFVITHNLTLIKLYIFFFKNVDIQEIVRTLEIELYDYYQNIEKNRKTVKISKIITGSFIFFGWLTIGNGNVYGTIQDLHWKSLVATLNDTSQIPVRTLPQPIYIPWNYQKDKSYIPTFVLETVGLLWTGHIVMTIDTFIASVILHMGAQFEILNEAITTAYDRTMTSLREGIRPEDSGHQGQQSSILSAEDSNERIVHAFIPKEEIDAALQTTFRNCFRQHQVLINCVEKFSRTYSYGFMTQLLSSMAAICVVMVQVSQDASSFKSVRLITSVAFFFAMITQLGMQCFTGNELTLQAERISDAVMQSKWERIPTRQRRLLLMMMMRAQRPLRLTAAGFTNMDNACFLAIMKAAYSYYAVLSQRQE

O=CCc1ccccc1 [Phenylacetaldehyde]
EC50 (HarmOR42): 48 µM | ligand tuning of HarmOR42 (HarmOR42; 67 odorants at 10^−4 M, listed as PAA): largest response; also recorded: high specificity and sensitivity | current response (HarmOR42; HarmOR42, odorant 10^−4 M, strongest response detected): ~6,000 nA | EAG response of HarmOR42 knock-out mutants compared with wild-type moths [1]: significantly decreased
